{
  "source": "patent US12138256B2",
  "about": "“Treatment of cardiopulmonary disorders” (Bayer Aktiengesellschaft, priority 2021, dated 2024)",
  "key": {"PAH minipig model": {"test_system": "PAH minipig model", "experiment": "Deposited lung dose (absorbing filters) in PAH minipig model and prediction of human dose and duration of effect", "format": "in vivo, Göttingen minipig", "protocol": "The anesthetized thromboxane A2 challenged PAH-minipig model (see experimental part C-2.1) is considered to be the most relevant and sensitive model for the prediction of the human minimal effective and effective doses (MED, ED). To determine effective LDs, experiments in minipigs were repeated with the difference that absorbing filters were attached at the end of the tubes to determine the deposited lung dose. […] Assuming a minimal effective ND of 3 μg/kg (5% reduction in PAP) the minimal effective deposited LD is considered as 0.15 μg/kg (see FIG. 1).\nThe resulting lung deposited doses in the minipig of 0.15, 0.5, 1.5 and 5 μg/kg were multiplied by 60 kg to achieve the lung dose in humans. Thus, the FPD reflecting the PAP reduction for a 60 kg human are calculated to be 9, 30, 90 and 300 μg.\nThus, via a direct up-scaling from minipig, the predictive MED (5% PAP reduction) for a human based on a 60 kg body weight is calculated to be 9 μg LDD, not considering protein binding within the respiratory tract. As a surrogate for unbound concentrations, which are the likely active concentrations in the lung, we considered respective differences in fractions unbound in plasma of minipig and human. This consideration results in a minimum effective lung dose (LD) for a 60 kg participant of 41 μg LDD for the assumed 5% reduction on PAP. Consequently, the predictive minimal human effective dose is in the range from 9 μg LDD to 41 μg LDD based on a 60 kg body weight (see FIG. 2).\nThis translation was also conducted for effective doses (effective PAP reduction>five up to 35 percent for longer time periods up to the complete observation period of 4 hrs) based on the relative lung deposited doses in minipigs as listed in Table 2.\nFor DPI products, it is assumed that the fine particle dose (FPD) is basically equivalent to the human lung deposited dose.\nWith respect to a prediction of the duration of action for human studies comparative example 11 was compared in the PAH minipig model after inhaled application to Ventavis® (=Iloprost, 10 μg/kg nominal dose), which we used as a clinical reference. […] Therefore the duration of action is more than 6 times longer compared to Ventavis in this preclinical animal model.\nIn order to generate a human dose estimate, experiments in the PAH minipig model for comparative example 11 were repeated with the difference that absorbing filters were attached at the end of the tubes to determine the deposited lung dose. […] The arithmetic mean of the aerosol fraction deposited on the filters is 5% based on all results of the filter experiments, resulting in relative lung deposited doses of about 0.15 μg/kg (3 μg/kg nominal dose), 0.5 μg/kg (10 μg/kg nominal dose), 1.5 μg/kg (30 μg/kg nominal dose) and 5 μg/kg (100 μg/kg nominal dose). Assuming a minimal effective nominal dose of 3 μg/kg for a 5% reduction in PAP and a mean nebulization efficiency of 5%, the minimal effective deposited lung dose is considered as 0.15 μg/kg based on the PAH minipig model. Therefore, for a human patient of 60 kg body weight a minimal effective lung deposited dose of 9-41 μg, depending on whether or not an effect of different protein binding (see table 2.1.5) is postulated. Considering 100 μg/kg as effective dose in the minipig model, 300-1370 μg lung deposited dose is postulated as effective dose, again depending on the consideration of different interspecies protein binding."}, "[1]": {"test_system": "guinea pig trachea pre-contracted with carbachol", "experiment": "Bronchorelaxation in vitro: carbachol pre-contracted guinea pig trachea rings, wash-out recovery factor (C-3.1)", "conditions": "1 μmol/l", "protocol": "Male Dunkin Hartley guinea pig were euthanized using carbon dioxide. The primary bronchus was removed and placed in ice-cold Krebs-Henseleit buffer of following composition (in mmol/l): […] For recording of isometric tension, the bronchial rings were mounted between two hooks. One hook was connected to a force transducer the other was moveable and allowed a precise adjustment of resting tension at 1.5 g. During the equilibration period of 60 min the tissue was washed every 20 min with buffer. […] After 30 min, a cumulative dose response curve of the test compound was constructed. Every concentration was incubated till the response was stable. […] The relaxation was expressed as percentage tension. […] The recovery factor was calculated as a ratio of bronchodilation 1 h after compound application and bronchodilation 1 h after removal (wash out) of test compound. […] Relaxation via Cinaciguat (comparative example 1) and Riociguat (comparative example 2) reached a steady state within the 1 h incubation time. […] In contrast, relaxation induced by comparative example 11 was further progressing during the wash out period (recovery factor 1.41)."}, "[2]": {"conditions": "minipig 0.15 μg/kg lung deposited (3 μg/kg nominal dose)"}, "[3]": {"conditions": "minipig 0.50 μg/kg lung deposited (10 μg/kg nominal dose)"}, "[4]": {"conditions": "minipig 1.5 μg/kg lung deposited (30 μg/kg nominal dose)"}, "[5]": {"conditions": "minipig 5.0 μg/kg lung deposited (100 μg/kg nominal dose)"}},
  "data": [
    {"smiles": "O=C(O)c1ccc(CCN(CCc2ccccc2OCc2ccc(-c3ccc(C(F)(F)F)cc3)cc2Cl)[C@H]2CCCc3nc(C(=O)O)ccc32)cc1", "note": "[comparative example 11, (5S)-5-{[2-(4-carboxyphenyl)ethyl][2-(2-{[3-chloro-4′-(trifluoromethyl)[biphenyl]-4-yl]methoxy}phenyl)ethyl]amino}-5,6,7,8-tetrahydroquinoline-2-carboxylic acid]", "values": [
      {"measurement": "minimal effective deposited lung dose", "setting": "PAH minipig model; 5% reduction in PAP, mean nebulization efficiency 5%, minipig", "result": 0.15, "unit": "µg/kg"},
      {"measurement": "minimal effective nominal dose (MED)", "setting": "PAH minipig model; 5% reduction in PAP, nebulized liquid solution, minipig", "result": 3, "unit": "µg/kg"},
      {"measurement": "predictive minimal human effective lung deposited dose", "setting": "PAH minipig model; 60 kg body weight, 5% PAP reduction, without/with protein binding difference", "result": "9 to 41", "unit": "µg"},
      {"measurement": "effective lung deposited doses in humans expected from minipig data", "setting": "PAH minipig model; 60 kg human", "result": "9 to 1370", "unit": "µg"},
      {"measurement": "supposed duration of action in humans", "setting": "PAH minipig model; assumption that duration is comparable between PAH minipig model and humans", "result": "at least 6 hours"},
      {"measurement": "lung deposited dose postulated as effective dose in humans", "setting": "PAH minipig model; considering 100 μg/kg as effective dose in the minipig model, 60 kg", "result": "300 to 1370", "unit": "µg"},
      {"measurement": "Total lung deposited dose in a 60 kg human, interspecies difference in protein binding considered", "setting": "PAH minipig model; [2]", "result": 41, "unit": "µg"},
      {"measurement": "Total lung deposited dose in a 60 kg human, interspecies difference in protein binding not considered", "setting": "PAH minipig model; [2]", "result": 9, "unit": "µg"},
      {"measurement": "Total lung deposited dose in a 60 kg human, interspecies difference in protein binding considered", "setting": "PAH minipig model; [3]", "result": 137, "unit": "µg"},
      {"measurement": "Total lung deposited dose in a 60 kg human, interspecies difference in protein binding not considered", "setting": "PAH minipig model; [3]", "result": 30, "unit": "µg"},
      {"measurement": "Total lung deposited dose in a 60 kg human, interspecies difference in protein binding considered", "setting": "PAH minipig model; [4]", "result": 410, "unit": "µg"},
      {"measurement": "Total lung deposited dose in a 60 kg human, interspecies difference in protein binding not considered", "setting": "PAH minipig model; [4]", "result": 90, "unit": "µg"},
      {"measurement": "Total lung deposited dose in a 60 kg human, interspecies difference in protein binding considered", "setting": "PAH minipig model; [5]", "result": 1370, "unit": "µg"},
      {"measurement": "Total lung deposited dose in a 60 kg human, interspecies difference in protein binding not considered", "setting": "PAH minipig model; [5]", "result": 300, "unit": "µg"},
      {"measurement": "highest effective dose in the minipig model without systemic side effects (BP reduction)", "setting": "PAH minipig model; nominal dose, inhaled", "result": 100, "unit": "µg/kg"},
      {"measurement": "Relaxation (%) (timepoint at 70 min) Mean", "setting": "[1]", "result": 72.2, "unit": "%"},
      {"measurement": "Relaxation (%) (timepoint at 130 min) Mean", "setting": "[1]", "result": 51.3, "unit": "%"}
    ]}
  ]
}
